# Values quoted from earlier work as cited in article PMC2864424 (Current Chemical Genomics, 2010).
# Experiments:
# OATP1B1 = details: cited from earlier work
# OATP1B3 = details: concentrations up to 10 μM; cited from earlier work
smiles,measurement,setting,value
CC1(C)C(/C=C/C=C/C=C/C=C2\N(CCCCS(=O)(=O)O)c3ccc4ccccc4c3C2(C)C)=[N+](CCCCS(=O)(=O)[O-])c2ccc3ccccc3c21 [indocyanine green],effect on OATP1B1-mediated estradiol-17β-glucuronide transport,OATP1B1,specific inhibitor
same,effect on OATP1B3-mediated estradiol-17β-glucuronide transport,OATP1B3,not affecting
